Data: the NIST ThermoML archive (doi:10.1016/j.jct.2016.07.026)

Assay: wn = mass fraction of the nth substance listed
Conditions: 101 kPa, Liquid, Concentric cylinders viscometry

O=C([O-])[O-].[K+].[K+] [potassium carbonate] + O
viscosity [mPa·s]
Conditions | 303.2 K | 313.2 K | 323.2 K
w1 = 0.15 | 1.27 | 1.08 | 0.92
w1 = 0.2 | 1.43 | 1.22 | 1.05
w1 = 0.2501 | 1.64 | 1.39 | 1.2
